# Laboratory results: patent publication US20080051418A1, “Arylalkanoic Acid Derivative” (priority 2004, published 2008)
# Structures can show the parent of a compound that is named as a salt.
# Key:
# PPARγ-RXRα heterodimer = molecular target: T1, PPARγ-RXRα heterodimer (Homo sapiens, UniProt P37231); experiment: PPARγ-RXRα heterodimer ligand activity (luciferase reporter); type: cell-based; settings: PPARγ:RXRα:4ERPP/CHO-K1 cells, 18-24 hr, concentration showing 50% of the maximum induction rate
# T1 construct: expressed in transfected cells; host or cells: CHO-K1
# T1 sequence (P37231 1-505): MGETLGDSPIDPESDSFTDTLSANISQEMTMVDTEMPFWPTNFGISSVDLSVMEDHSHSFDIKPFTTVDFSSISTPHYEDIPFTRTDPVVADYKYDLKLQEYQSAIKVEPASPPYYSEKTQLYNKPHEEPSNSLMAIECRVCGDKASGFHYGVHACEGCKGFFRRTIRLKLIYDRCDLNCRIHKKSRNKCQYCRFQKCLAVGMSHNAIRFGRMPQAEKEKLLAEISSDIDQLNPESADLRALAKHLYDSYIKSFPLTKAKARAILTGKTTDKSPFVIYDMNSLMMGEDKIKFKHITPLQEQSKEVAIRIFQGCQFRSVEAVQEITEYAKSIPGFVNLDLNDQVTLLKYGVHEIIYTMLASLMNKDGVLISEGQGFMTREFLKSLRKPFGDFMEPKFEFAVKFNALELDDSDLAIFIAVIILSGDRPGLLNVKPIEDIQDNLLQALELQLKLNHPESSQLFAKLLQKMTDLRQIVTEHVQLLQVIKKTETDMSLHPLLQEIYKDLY
# T1 sequence (P19793 1-462 partner): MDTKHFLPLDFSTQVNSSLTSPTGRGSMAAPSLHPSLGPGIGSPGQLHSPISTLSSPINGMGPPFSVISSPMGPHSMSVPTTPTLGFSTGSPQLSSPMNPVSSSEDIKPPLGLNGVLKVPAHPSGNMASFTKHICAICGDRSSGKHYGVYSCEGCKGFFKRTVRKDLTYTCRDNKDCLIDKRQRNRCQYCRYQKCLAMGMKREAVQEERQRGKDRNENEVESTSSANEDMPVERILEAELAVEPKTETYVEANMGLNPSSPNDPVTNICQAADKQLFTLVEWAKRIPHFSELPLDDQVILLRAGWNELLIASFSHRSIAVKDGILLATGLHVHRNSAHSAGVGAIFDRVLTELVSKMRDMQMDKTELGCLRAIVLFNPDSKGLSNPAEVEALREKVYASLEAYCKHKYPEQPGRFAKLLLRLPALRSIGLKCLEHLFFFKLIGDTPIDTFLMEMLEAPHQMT
# Description: The PPARγ:RXRα:4ERPP/CHO-K1 cells described in WO03/099793 were cultured in a Ham F12 medium [manufactured by Life Technologies, Inc., US] containing 10% calf fetal serum [manufactured by Life Technologies, Inc., US], sown in a 96-well white plate [manufactured by Corning Coster Corporation, US] at 2×10^4 cells/well, and incubated overnight in a carbon dioxide gas incubator at 37° C.
# Then, the medium was removed from the 96 well white plate, 80 μl of Ham F12 medium containing 0.1% fatty acid-free bovine serum albumin (BSA) and a test compound (20 μl) were added, and the cells were incubated for 18-24 hr in a carbon dioxide gas incubator at 37° C. The medium was removed, 40 μl of PicaGene 7.5 (manufactured by Wako Pure Chemical Industries, Ltd.) diluted 2-fold with HBSS (HANKS' BALANCED SALT SOLUTION) [manufactured by BIO WHITTAKER, US] was added. After stirring, the luciferase activity was determined using the 1420 ARVO Multilabel Counter [manufactured by PerkinElmer, US].
# The induction rate was calculated from the luciferase activity of each test compound based on the luciferase activity of the test compound non-administration group as 1. The test compound concentration and the induction rate were analyzed by PRISM [manufactured by GraphPad Software, Inc., US] to calculate EC50 value (compound concentration showing 50% of the maximum value of induction rate) of the test compound.
EC50 (PPARγ-RXRα heterodimer) [nM],melting point [°C],SMILES
1.5,103.5 to 104.5,"CC(C)OCCOc1ccc(CCCOc2nn(C)cc2CC(=O)O)c(Oc2ncc(C(F)(F)F)cc2Cl)c1 [Example 177, (3-{3-[2-{[3-chloro-5-(trifluoromethyl)pyridin-2-yl]oxy}-4-(2-isopropoxyethoxy)phenyl]propoxy}-1-methyl-1H-pyrazol-4-yl)acetic acid]"
0.61,99 to 100,"CC(C)Oc1ccc(CCCOc2cc(CCC(=O)O)n(Cc3ccccc3)n2)c(Oc2ncc(C(F)(F)F)cc2Cl)c1 [Example 137, 3-{1-benzyl-3-[3-(2-{[3-chloro-5-(trifluoromethyl)pyridin-2-yl]oxy}-4-isopropoxyphenyl)propoxy]-1H-pyrazol-5-yl}propanoic acid]"
23,122 to 123,"CCCOc1cc(CCCOc2c(CC(=O)O)cccc2OC)n(Cc2ccc(C(F)(F)F)cc2)n1 [Example 59, [3-methoxy-2-(3-{3-propoxy-1-[4-(trifluoromethyl)benzyl]-1H-pyrazol-5-yl}propoxy)phenyl]acetic acid]"
2.6,120 to 122,"CC(C)Oc1cc(CCCOc2ccc3ccccc3c2CC(=O)O)n(Cc2ccc(Cl)cc2Cl)n1 [Example 85, (2-{3-[1-(2,4-dichlorobenzyl)-3-isopropoxy-1H-pyrazol-5-yl]propoxy}-1-naphthyl)acetic acid]"
5.4,105 to 107,"Cc1cc(C(F)(F)F)ccc1Cn1nc(OC(C)C)cc1CCCOc1ncccc1CC(=O)O [Example 80, [2-(3-{3-isopropoxy-1-[2-methyl-4-(trifluoromethyl)benzyl]-1H-pyrazol-5-yl}propoxy)pyridin-3-yl]acetic acid]"
20,75 to 77,"Cc1nc(OCCCc2cc(OC(C)C)nn2Cc2ccc(Cl)cc2Cl)c(CC(=O)O)s1 [Example 36, (4-{3-[1-(2,4-dichlorobenzyl)-3-isopropoxy-1H-pyrazol-5-yl]propoxy}-2-methyl-1,3-thiazol-5-yl)acetic acid]"
42,90 to 91,"CC(C)Oc1cc(CCCOc2ncccc2CC(=O)O)n(Cc2ccc(F)cc2Cl)n1 [Example 93, (2-{3-[1-(2-chloro-4-fluorobenzyl)-3-isopropoxy-1H-pyrazol-5-yl]propoxy}pyridin-3-yl)acetic acid]"
2.6,,"CC(C)Oc1ccc(CCCOc2nn(C)cc2CCC(=O)O)c(Oc2ncc(C(F)(F)F)cc2Cl)c1 [Example 145, 3-{3-[3-(2-{[3-chloro-5-(trifluoromethyl)pyridin-2-yl]oxy}-4-isopropoxyphenyl)propoxy]-1-methyl-1H-pyrazol-4-yl}propanoic acid]"
3,81 to 82,"Cc1cc(Cl)ccc1Cn1nc(OC(C)C)cc1CCCOc1nn(Cc2ccccc2)cc1CC(=O)O [Example 73, (1-benzyl-3-{3-[1-(4-chloro-2-methylbenzyl)-3-isopropoxy-1H-pyrazol-5-yl]propoxy}-1H-pyrazol-4-yl)acetic acid]"
1.7,,"CC(C)c1cc(CCCOc2nn(Cc3ccccc3)cc2CC(=O)O)n(Cc2ccc(Cl)cc2Cl)n1 [Example 34, (1-benzyl-3-{3-[1-(2,4-dichlorobenzyl)-3-isopropyl-1H-pyrazol-5-yl]propoxy}-1H-pyrazol-4-yl)acetic acid 1/2 calcium salt]"
39,,"CC(C)Oc1cc(CCCOc2nn(Cc3ccccc3)cc2CC(=O)O)n(Cc2ccc(Cl)cc2OC(C)C)n1 [Example 71, (1-benzyl-3-{3-[1-(4-chloro-2-isopropoxybenzyl)-3-isopropoxy-1H-pyrazol-5-yl]propoxy}-1H-pyrazol-4-yl)acetic acid]"
5.1,121 to 123,"CC(C)Oc1cc(CCCOc2nn(Cc3ccccc3)cc2CC(=O)O)n(Cc2ccc(F)cc2Cl)n1 [Example 92, (1-benzyl-3-{3-[1-(2-chloro-4-fluorobenzyl)-3-isopropoxy-1H-pyrazol-5-yl]propoxy}-1H-pyrazol-4-yl)acetic acid]"
3.2,,"CCCOc1cc(CCCOc2c(CC(=O)O)cccc2OC)n(C(C)c2ccc(Cl)cc2Cl)n1 (stereo not shown) [Example 19, [2-(3-{1-[1-(2,4-dichlorophenyl)ethyl]-3-propoxy-1H-pyrazol-5-yl}propoxy)-3-methoxyphenyl]acetic acid]"
2.7,101 to 102,"COc1cccc(CC(=O)O)c1OCCCc1cc(C(C)C)nn1Cc1ccc(Cl)cc1Cl [Example 35, (2-{3-[1-(2,4-dichlorobenzyl)-3-isopropyl-1H-pyrazol-5-yl]propoxy}-3-methoxyphenyl)acetic acid]"
26,77 to 80,"CCCOc1cc(CCCOc2c(CC(=O)O)cccc2OC)n(Cc2ccc(F)cc2F)n1 [Example 82, (2-{3-[1-(2,4-difluorobenzyl)-3-propoxy-1H-pyrazol-5-yl]propoxy}-3-methoxyphenyl)acetic acid]"
1.9,,"CC(C)c1cc(CCCOc2nn(Cc3ccccc3)cc2CC(=O)O)n(Cc2ccc(C(F)(F)F)cc2Cl)n1 [Example 75, [1-benzyl-3-(3-{1-[2-chloro-4-(trifluoromethyl)benzyl]-3-isopropyl-1H-pyrazol-5-yl}propoxy)-1H-pyrazol-4-yl]acetic acid]"
,101 to 102,"COCOc1cc(CCCOc2ncccc2CC(=O)O)n(Cc2ccc(Cl)cc2Cl)n1 [Example 207, (2-{3-[1-(2,4-dichlorobenzyl)-3-(methoxymethoxy)-1H-pyrazol-5-yl]propoxy}pyridin-3-yl)acetic acid]"
,128.5 to 129.5,"COCCOc1ccc(CCCOc2cc(CCC(=O)O)n(C)n2)c(OCc2ccc(Cl)cc2Cl)c1 [Example 164, 3-(3-{3-[2-[(2,4-dichlorobenzyl)oxy]-4-(2-methoxyethoxy)phenyl]propoxy}-1-methyl-1H-pyrazol-5-yl)propanoic acid]"
,145.5 to 147.5,"CC(C)Oc1cc(CCCOc2cc(CCC(=O)O)n(-c3ccccc3)n2)n(Cc2ccc(Cl)cc2Cl)n1 [Example 192, 3-(3-{3-[1-(2,4-dichlorobenzyl)-3-isopropoxy-1H-pyrazol-5-yl]propoxy}-1-phenyl-1H-pyrazol-5-yl)propanoic acid]"
,89 to 91,"CCOc1ccc(CCCOc2c(CC(=O)O)cccc2OC)c(Oc2ccc(Cl)cc2Cl)n1 [Example 134, (2-{3-[2-(2,4-dichlorophenoxy)-6-ethoxypyridin-3-yl]propoxy}-3-methoxyphenyl)acetic acid]"
,97 to 98,"COc1cccc(CC(=O)O)c1OCCCc1cc(OC(C)C)nn1Cc1c(F)cccc1Cl [Example 67, (2-{3-[1-(2-chloro-6-fluorobenzyl)-3-isopropoxy-1H-pyrazol-5-yl]propoxy}-3-methoxyphenyl)acetic acid]"
,81 to 83,"CCOc1ccc(CCCOc2nn(C)cc2CC(=O)O)c(Oc2ccc(Cl)cc2Cl)n1 [Example 135, (3-{3-[2-(2,4-dichlorophenoxy)-6-ethoxypyridin-3-yl]propoxy}-1-methyl-1H-pyrazol-4-yl)acetic acid]"
,114 to 116,"CCn1nc(OCCCc2ccc(OCCOC)cc2OCc2ccc(Cl)cc2Cl)cc1CCC(=O)O [Example 165, 3-(3-{3-{2-[(2,4-dichlorobenzyl)oxy]-4-(2-methoxyethoxy)phenyl}propoxy}-1-ethyl-1H-pyrazol-5-yl)propanoic acid]"
